# Measurements from PubChem BioAssay AID2401 (Southern Research Specialized Biocontainment Screening …, 2010).
# Where “and” joins values, the source holds several entries; their conditions need not be identical. Equal entries are not always repeated.
# Tested on: S. Typhimurium GFP reporter counter-screen, fluorescence, 4 h
# Assay: nmpC-GFP reporter counter-screen in S. Typhimurium, dose response, counter-screen for PhoP regulon inhibitor project, Salmonella Typhimurium, GFP fluorescence (AID 2401);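 also: S. typhimurium with Mg-insensitive nmpC-GFP reporter grown at 10 µM Mg2+; drop in reporter fluorescence reflects general culture growth inhibition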
row,SMILES,IC50
1,CCCCCCCCCCOC(=O)Cn1c(COc2ccccc2)[n+](C)c2ccccc21,19.2 µM
2,Oc1ccc(CN2CCN(Cc3ccccc3)CC2)c2cccnc12,35 µM
3,CCC(C)(C)c1ccc(OCCCC[n+]2ccccc2)c(C(C)(C)CC)c1,34.9 µM
4,O=C(NNC(=O)c1cnccn1)c1ccc(Cl)cc1,117 µM
5,CO[C@@]1(NC(=O)C2SC(=C(C(N)=O)C(=O)O)S2)C(=O)N2C(C(=O)O)=C(CSc3nnnn3C)CS[C@@H]21 (stereo not given in full),26.9 µM
6,O=C(Nc1nc(-c2ccccn2)cs1)c1ccc(Cl)s1,28.6 µM
7,Fc1ccc(CCNCc2ccc(Cl)c(Cl)c2)cc1,80.6 µM
8,CSc1ccc2c(c1)C(N1CCN(C)CC1)Cc1ccccc1S2 (stereo not given),87.2 µM
9,CC(=O)Oc1ccc(C(=O)[C@H]2[C@H]3C(=O)N(c4ccc5ccccc5c4)C(=O)[C@H]3[C@@H]3C=CC=NN32)cc1,128 µM
10,O=C(c1ccc(F)cc1)C(CN1CCOCC1)c1ccccc1 (stereo not given),144 µM
11,CN1CCc2c(sc(NC(=O)c3ccc([N+](=O)[O-])o3)c2C(N)=O)C1,47.7 µM
12,c1ccc(-c2cccc(-c3ccccn3)n2)nc1,21.2 µM
13,Nc1ccc2c(c1)C(=O)C(=O)c1ccccc1-2,11 µM
14,O=C(/C=C/c1ccccc1Cl)c1ccccc(=O)c1O,23.8 µM
15,Clc1ccc(OCCCNCc2ccccc2)c(Br)c1,46.4 µM
16,COc1ccc(C(=O)Cn2nc(CNc3ccc(Br)cc3)[n+]3c2CCCCC3)cc1,80.8 µM
17,N=C(N)SCc1cn(-c2ccccc2)nc1-c1ccc(Br)cc1,20.3 µM
18,COc1c(N2CCN(C(=S)Nc3ccc(F)cc3)C(C)C2)c(F)cc2c(=O)c(C(=O)O)cn(C3CC3)c12 (stereo not given),15.7 µM
19,Oc1ccc(N=Cc2ccc(O)c(O)c2)cc1,118 µM
20,COc1ccc(C(C[N+](=O)[O-])n2nc(C)cc2C)cc1 (stereo not given),13.4 µM
21,CCCCC(CC)CN=C(N)NC(N)=NCCCCCCN=C(N)NC(N)=NCC(CC)CCCC (stereo not given),5.51 µM
22,O=S1(=O)Nc2c(ccc3cccnc23)-c2ccccc21,2.73 µM
23,CCCOc1ccc(C(=O)NC(=S)N2CCN(c3cc4c(cc3F)c(=O)c(C(=O)O)cn4CC)CC2)cc1,56.5 µM
24,CCCCCCCCCCOC(=O)Cn1c(COc2ccc(C)cc2)[n+](C)c2ccccc21,19.8 µM
25,CC(=O)NC(c1ccc(Cl)cc1Cl)c1ccc2cccnc2c1O (stereo not given),48.8 µM
26,O=c1[nH]c2ccccc2n2c(=S)[nH]nc12,37.5 µM
27,O=C1c2ccccc2C(=O)c2[nH]c(=O)[nH]c21,6.67 µM
28,C=C1c2cccc(O)c2C(O)=C2C(=O)[C@]3(O)C(O)=C(C(N)=O)C(=O)[C@@H](N(C)C)[C@@H]3[C@@H](O)[C@H]12,0.67 µM

row,SMILES,IC50
1,Oc1ccc(CNc2ccccc2F)c2cccnc12,45.7 µM
2,CC(C)Oc1ccc(Cc2cnc(N)nc2N)cc1,34 µM
3,Oc1c(Br)cc(Br)cc1C=NCc1ccccc1,99.2 µM
4,Oc1c(CN2CCN(c3ccc(F)cc3)CC2)cc(Cl)c2cccnc12,19.8 µM
5,OCCN1CCN(Cc2cc(Cl)c3cccnc3c2O)CC1,75.2 µM
6,O=C(N[C@H](CO)[C@H](O)c1ccc([N+](=O)[O-])cc1)C(Cl)Cl,9.59 µM
7,CN1CCN(C(c2ccccn2)c2cc(Cl)c3cccnc3c2O)CC1 (stereo not given),43.9 µM
8,CNc1cc(Cl)c2nonc2c1[N+](=O)[O-],37.7 µM
9,CCCNC1=C(C)C(=O)C2=C(C1=O)C(COC(N)=O)[C@]1(OC)C3NC3CN21 (stereo not given in full),128 µM
10,Cc1nnc(N/N=C/c2ccccn2)[nH]c1=O,18 µM
11,CCCCCc1ccc(OCCOCCn2c[n+](C)c3ccccc32)c(CCCCC)c1,63.2 µM
12,O=C(Cc1c[nH]c2ccccc12)N/N=C/c1ccccc1O,89.3 µM
13,CCCC(=O)NC(c1ccc(N(C)C)cc1)c1ccc2cccnc2c1O (stereo not given),107 µM
14,ON=C1/C(=N\O)CC2(C/C1=N/O)OCCO2,98.3 µM
15,O=C1NC(=S)S/C1=C\C=C\c1ccc([N+](=O)[O-])o1,21.7 µM
16,CN1/C(=C\C=C\C2=[N+](C)c3ccc4ccccc4c3C2(C)C)C(C)(C)c2ccccc21,9.42 µM
17,CCC(C)(C)c1ccc(OCCCC[n+]2ccc(C)cc2)c(C(C)(C)CC)c1,48.4 µM
18,Cc1ccc(C(=O)Sc2cccccc2=O)cc1,9.74 µM
19,CC[n+]1c(/C=C/C=C/c2ccc(N(C)C)cc2)sc2ccccc21,72.9 µM
20,COc1cccc(C2Nc3ccccc3C(=O)N2O)c1O (stereo not given),138 µM
21,OCCNCc1c(OCc2ccc(Cl)cc2)ccc2ccccc12,90 µM
22,CCN1/C(=C/C=C/C=C/c2sc3ccccc3[n+]2CC)Sc2ccccc21,17.8 µM
23,CS(=O)(=O)c1ccc([C@@H](O)[C@@H](CF)NC(=O)C(Cl)Cl)cc1,16.6 µM
24,CCCCCCCCCCOC(=O)Cn1c(COc2ccc(OC)cc2)[n+](C)c2ccccc21,21.2 µM and 22.3 µM
25,O=C(N/N=C/c1cc(O)ccc1Br)c1cccnc1,25.4 µM
26,COc1cccc(/C=N/Nc2ncc(C(F)(F)F)cc2Cl)c1O,126 µM
27,Fc1ccccc1CCNCc1ccccc1,36.2 µM
